# Measured values from US10342812B2, “Glycan-based drugs, therapies and biomarkers” (priority 2008, dated 2019).
# Legend:
# [1] = test system: 2009H1N1 influenza virus (California strain); type: in vivo, chicken
# rhesus rotavirus (RRV) [2] = experiment: Prevention of rotavirus infection in mouse pups with Neu5Ac, methionine, formula-1 (5.7); type: in vivo; details: for Not sick (number) / Sick Rate(%): 20 μl oral at P1, RRV at P2; for Sick (number): 20 μl oral at P1, RRV at P2, 3 weeks; for Odds Ratio: vs saline
# [3] = type: in vivo, chicken
# [4] = test system: A/PR/8/34(H1N1) influenza virus strain; experiment: Treatment of influenza infection of newborn mice (15.2); type: in vivo, mouse; details: virus at P5, i.p. treatment at day 2, 3, 4 and 5; kept 10 days
# Method: Four groups of newborn bulb/c pups were inoculated at day 5 (P5) via nasal and oral administration of 20 μl (microliter) of the A/PR/8/34(H1N1) influenza virus strain (titer: 1:256, diluted 200 times with saline); and were treated at day 2, 3, 4 and 5 via intraperitoneal injection with 100 μl of saline containing 1) saline alone (n=10); 2) 150 microgram of Neu5AcMe; 3) 30 μl of 2% diethyl disulfide plus 200 μg of the Neu5AcMe (n=10); and 4) 30 μl of 2% diethyl disulfide plus 200 μg of the Neu5Ac (n=10). Mice were kept for 10 days after treatment.
# rhesus rotavirus (RRV) [5] = experiment: Prevention of rotavirus infection in mouse pups with methionine-Zn (8.1); type: in vivo
# [6] = pretreated at E16, virus next day
compound,measurement,setting,value
CCSSCC [Diethyl disulfide],Not sick (number),[1]; [6],5
same,Sick (number),[1]; [6],1
same,Sick Rate(%),[1]; [6],17%
same,Odds Ratio,[1]; vs saline,0.04
"CSCC[C@H](N)C(=O)O [Metnionine, Methionine]",Not sick (number),rhesus rotavirus (RRV) [2],9
same,Sick Rate(%),rhesus rotavirus (RRV) [2],25.0%
same,Sick (number),rhesus rotavirus (RRV) [2],3
same,Odds Ratio,rhesus rotavirus (RRV) [2],0.07
"CC(=O)N[C@H]1[C@H]([C@H](O)[C@H](O)CO)OC(O)(C(=O)O)C[C@@H]1O (some centres unmarked) [Neu5Ac, N-Acetylneuraminic acid]",Not sick (number),rhesus rotavirus (RRV) [2],10
same,Sick Rate(%),rhesus rotavirus (RRV) [2],23.1%
same,Sick (number),rhesus rotavirus (RRV) [2],3
same,Odds Ratio,rhesus rotavirus (RRV) [2],0.07
same,side effect of the H5N1 vaccine candidate (still sick),"[3]; day 3, saline 87.5%",12.5%
same,Odd Ratio,[3]; in vivo,0.02
same,sick chickens recovered and looked normal,"[3]; in vivo, po",7/8
"COC(=O)[C@]1(O)CC(O)[C@@H](NC(C)=O)C(C(O)[C@H](O)CO)O1 (some centres unmarked) [Neu5AcMe, N-Acetylneuraminic acid methyl ester]",pups survived,[4],50%
Methionine-Zinc (Zn) complex [Metnionine-Zn],Not sick (number),"rhesus rotavirus (RRV) [5]; 20 μl oral at P1, RRV at P2",6
same,Sick Rate(%),"rhesus rotavirus (RRV) [5]; 20 μl oral at P1, RRV at P2",14%
same,Sick (number),"rhesus rotavirus (RRV) [5]; 20 μl oral at P1, RRV at P2, 3 weeks",1
same,Odds Ratio,rhesus rotavirus (RRV) [5]; vs saline,0.03
